Literature values, collected in patent US20230219928A1, “PREPARATION METHOD FOR AROMATIC ETHER COMPOUND” (Jiangsu Yahong Meditech Co., Ltd., priority 2020, published 2023).

Key:
[1] = background statement
[2] = human, phase II clinical trial conducted by Jiangsu Yahong Meditech in China

In the case of `O=[N+]([O-])c1ccc(O)c2ncccc12` [nitroxoline], the water solubility [1] is given as “very low” and the biological half-life [2] is given as 1.22-1.44 hours.
